Data from US8629173B2, “Solid forms comprising (+)-2-[1-(3-ethoxy-4-methoxyphenyl)-2-methylsulfonylethyl]-4-acetylaminoisoindoline-1,3-dione, compositions thereof, and uses thereof” (Celgene Corporation, priority 2002, dated 2014).

Legend:
[1] = target: PDE3 from human platelets (Homo sapiens, UniProt Q14432); assay: PDE3 enzyme assay; assay type: biochemical
PDE4 (from U937 cells) = assay: PDE4 (U937 cell-derived) enzyme assay; assay type: biochemical, human; details: 1 μM cAMP
human PDE2 = human PDE2 (Homo sapiens, UniProt O00408); assay: PDE2 enzyme assay; assay type: biochemical
bovine PDE1 = assay: PDE1 enzyme assay; assay type: biochemical
[2] = target: T1, PDE6 from bovine retinal rod outer segments (Bos taurus, UniProt P11541+P23439); assay: PDE6 enzyme assay; assay type: biochemical
T1 construct: PDE6 from bovine retinal rod outer segments; from tissue; host or cells: bovine retinal rod outer segments
T1 sequence (P11541 2-856 limits assumed): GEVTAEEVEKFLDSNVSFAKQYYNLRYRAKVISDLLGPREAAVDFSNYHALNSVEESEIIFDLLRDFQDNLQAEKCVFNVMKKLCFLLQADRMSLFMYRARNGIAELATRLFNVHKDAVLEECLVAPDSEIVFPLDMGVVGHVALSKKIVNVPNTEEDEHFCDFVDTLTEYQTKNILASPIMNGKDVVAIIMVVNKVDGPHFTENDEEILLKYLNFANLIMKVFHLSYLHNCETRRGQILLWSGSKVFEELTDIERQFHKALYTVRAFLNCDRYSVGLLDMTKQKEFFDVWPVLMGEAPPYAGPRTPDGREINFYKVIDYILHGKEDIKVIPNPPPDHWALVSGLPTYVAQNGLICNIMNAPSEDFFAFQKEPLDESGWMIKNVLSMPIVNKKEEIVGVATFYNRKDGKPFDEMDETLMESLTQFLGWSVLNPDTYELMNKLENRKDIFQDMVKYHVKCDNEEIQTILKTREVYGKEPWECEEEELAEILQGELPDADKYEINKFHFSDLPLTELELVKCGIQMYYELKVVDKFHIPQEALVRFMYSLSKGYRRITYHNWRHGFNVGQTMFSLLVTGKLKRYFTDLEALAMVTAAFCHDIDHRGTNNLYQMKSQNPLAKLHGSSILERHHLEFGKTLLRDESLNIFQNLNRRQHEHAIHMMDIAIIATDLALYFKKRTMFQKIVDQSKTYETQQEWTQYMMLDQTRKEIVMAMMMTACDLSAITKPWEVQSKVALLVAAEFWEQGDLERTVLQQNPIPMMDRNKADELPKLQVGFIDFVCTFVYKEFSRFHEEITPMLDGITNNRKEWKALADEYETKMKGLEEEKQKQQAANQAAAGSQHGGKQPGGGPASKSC
T1 sequence (P23439 2-850 limits assumed): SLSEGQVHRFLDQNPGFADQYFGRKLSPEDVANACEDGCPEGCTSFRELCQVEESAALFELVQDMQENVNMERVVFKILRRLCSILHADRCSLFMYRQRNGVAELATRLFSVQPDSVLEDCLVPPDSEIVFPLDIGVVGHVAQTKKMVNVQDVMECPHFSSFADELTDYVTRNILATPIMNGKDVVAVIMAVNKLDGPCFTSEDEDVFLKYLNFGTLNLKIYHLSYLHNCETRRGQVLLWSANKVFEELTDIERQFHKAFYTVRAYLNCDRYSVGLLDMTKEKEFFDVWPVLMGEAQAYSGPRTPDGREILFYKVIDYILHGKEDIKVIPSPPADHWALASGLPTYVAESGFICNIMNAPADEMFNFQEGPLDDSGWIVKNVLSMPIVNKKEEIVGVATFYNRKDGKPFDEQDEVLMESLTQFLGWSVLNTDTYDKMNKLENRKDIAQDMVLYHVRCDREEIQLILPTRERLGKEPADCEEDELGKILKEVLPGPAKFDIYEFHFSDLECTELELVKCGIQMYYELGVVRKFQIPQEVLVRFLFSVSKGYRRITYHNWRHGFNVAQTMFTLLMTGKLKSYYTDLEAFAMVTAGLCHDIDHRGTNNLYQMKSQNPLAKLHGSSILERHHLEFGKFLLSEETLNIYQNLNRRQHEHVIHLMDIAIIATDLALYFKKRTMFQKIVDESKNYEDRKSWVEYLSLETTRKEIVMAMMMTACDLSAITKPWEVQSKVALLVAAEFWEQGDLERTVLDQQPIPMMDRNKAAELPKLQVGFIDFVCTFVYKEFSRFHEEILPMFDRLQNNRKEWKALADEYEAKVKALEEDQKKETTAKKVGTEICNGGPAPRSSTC

[3] = target: PDE5 from human platelets (Homo sapiens, UniProt O76074); assay: PDE5 enzyme assay; assay type: biochemical

Sequence of PDE3 from human platelets (Q14432 whole entry): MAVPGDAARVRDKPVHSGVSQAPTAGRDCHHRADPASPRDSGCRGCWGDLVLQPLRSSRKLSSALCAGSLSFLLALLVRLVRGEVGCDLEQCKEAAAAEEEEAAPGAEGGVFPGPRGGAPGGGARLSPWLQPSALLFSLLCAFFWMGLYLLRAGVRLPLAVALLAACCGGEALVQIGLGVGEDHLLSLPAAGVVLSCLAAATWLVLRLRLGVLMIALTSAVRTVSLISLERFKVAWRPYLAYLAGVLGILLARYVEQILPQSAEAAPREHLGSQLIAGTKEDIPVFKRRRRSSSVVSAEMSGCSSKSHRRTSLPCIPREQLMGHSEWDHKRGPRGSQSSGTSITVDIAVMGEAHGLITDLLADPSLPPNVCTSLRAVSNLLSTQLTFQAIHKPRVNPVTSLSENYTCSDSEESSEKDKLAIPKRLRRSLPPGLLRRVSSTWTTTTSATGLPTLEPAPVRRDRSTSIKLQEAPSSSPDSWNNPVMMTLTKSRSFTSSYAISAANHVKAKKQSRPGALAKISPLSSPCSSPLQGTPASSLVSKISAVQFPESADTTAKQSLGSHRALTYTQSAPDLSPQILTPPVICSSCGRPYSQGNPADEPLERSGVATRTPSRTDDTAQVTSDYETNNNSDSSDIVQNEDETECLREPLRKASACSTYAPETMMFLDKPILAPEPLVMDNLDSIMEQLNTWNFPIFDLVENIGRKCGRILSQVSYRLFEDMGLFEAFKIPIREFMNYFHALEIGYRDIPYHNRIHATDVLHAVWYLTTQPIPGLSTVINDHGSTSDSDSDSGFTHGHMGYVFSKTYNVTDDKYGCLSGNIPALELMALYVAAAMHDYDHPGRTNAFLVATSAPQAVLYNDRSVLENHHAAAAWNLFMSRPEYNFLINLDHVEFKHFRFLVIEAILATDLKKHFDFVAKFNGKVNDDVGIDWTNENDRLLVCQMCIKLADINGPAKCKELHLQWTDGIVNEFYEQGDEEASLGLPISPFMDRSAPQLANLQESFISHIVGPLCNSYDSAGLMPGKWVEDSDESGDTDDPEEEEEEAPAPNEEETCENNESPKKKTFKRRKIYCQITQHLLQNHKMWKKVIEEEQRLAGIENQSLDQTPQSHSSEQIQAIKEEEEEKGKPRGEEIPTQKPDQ
Sequence of human PDE2 (O00408 whole entry): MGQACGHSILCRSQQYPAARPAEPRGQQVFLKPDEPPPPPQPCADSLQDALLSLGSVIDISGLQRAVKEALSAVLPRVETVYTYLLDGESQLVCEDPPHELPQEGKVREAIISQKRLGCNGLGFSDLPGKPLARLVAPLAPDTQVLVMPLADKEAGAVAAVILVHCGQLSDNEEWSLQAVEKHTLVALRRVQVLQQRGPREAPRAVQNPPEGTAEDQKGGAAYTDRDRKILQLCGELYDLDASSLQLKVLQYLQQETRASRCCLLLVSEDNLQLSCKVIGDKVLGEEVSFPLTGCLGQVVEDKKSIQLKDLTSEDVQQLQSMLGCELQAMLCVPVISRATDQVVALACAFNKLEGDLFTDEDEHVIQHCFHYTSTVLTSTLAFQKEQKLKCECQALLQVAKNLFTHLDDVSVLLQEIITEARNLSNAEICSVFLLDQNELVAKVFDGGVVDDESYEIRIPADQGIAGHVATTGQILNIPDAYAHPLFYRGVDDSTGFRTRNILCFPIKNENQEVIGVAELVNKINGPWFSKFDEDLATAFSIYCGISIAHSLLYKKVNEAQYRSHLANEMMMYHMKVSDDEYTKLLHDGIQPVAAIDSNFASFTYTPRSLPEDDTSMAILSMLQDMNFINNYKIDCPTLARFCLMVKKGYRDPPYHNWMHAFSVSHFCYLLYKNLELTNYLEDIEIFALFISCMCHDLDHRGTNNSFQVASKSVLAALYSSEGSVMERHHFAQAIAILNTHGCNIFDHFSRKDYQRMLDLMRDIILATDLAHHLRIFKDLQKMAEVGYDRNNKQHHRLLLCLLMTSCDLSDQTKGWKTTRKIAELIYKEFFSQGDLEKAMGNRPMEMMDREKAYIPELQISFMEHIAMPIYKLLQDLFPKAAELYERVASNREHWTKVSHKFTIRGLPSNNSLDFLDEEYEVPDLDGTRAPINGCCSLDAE

CCOc1cc([C@H](CS(C)(=O)=O)N2C(=O)c3cccc(NC(C)=O)c3C2=O)ccc1OC [Compound B]
PDE3 (% inhib at 10 μM) ([1]; 10 μM): 31%
PDE Specificity Ratio PDE4/PDE3 ([1]; from Table 1 data): >45 fold
IC50 (PDE4 (from U937 cells)): 611 nM
PDE2 (% inhib at 10 μM) (human PDE2; 10 μM): 10%
PDE Specificity Ratio PDE4/PDE2 (human PDE2; from Table 1 data): >260 fold
PDE1 (% inhib at 10 μM) (bovine PDE1; 10 μM): 27%
PDE Specificity Ratio PDE4/PDE1 (bovine PDE1; from Table 1 data): >50 fold
PDE6 (% inhib at 10 μM) ([2]; 10 μM): 10%
PDE Specificity Ratio PDE4/PDE6 ([2]; from Table 1 data): >250 fold
PDE5 (% inhib at 10 μM) ([3]; 10 μM): −9%
PDE Specificity Ratio PDE4/PDE5 ([3]; from Table 1 data): >39000 fold
